{
  "source": "patent US20090325858A1",
  "about": "“Reduction of Zinc-Induced Neurotoxic Injury By Blockade of Nitric Oxide Synthesis” (ANDRO DIAGNOSTICS, INC., priority 2003, published 2009)",
  "key": {"[1]": {"target": "Zn^2+-bound CA (bovine CA I)", "settings": "cited from earlier work"}, "[2]": {"tested_on": "zinc-positive neurons in hilus and hippocampal cortex (CA3)", "test": "Traumatic brain injury plus hypoperfusion, number of zinc-stained neurons", "type": "in vivo, rat", "settings": "for sparing in the number of zinc-injured (zinc-positive) neurons: trauma plus hypoperfusion", "source_text": "Male Sprague-Dawley rats weighing 350-400 g were anesthetized with isoflurane in an anesthetic chamber, intubated, and mechanically ventilated with 1.5-2.0% isoflurane in O2:room air (70:30) using a volume ventilator (EDCO Scientific, Chapel Hill, N.C.). Polyethylene cannulae were placed in both femoral arteries and one femoral vein for arterial pressure monitoring and hemorrhage and for drug infusion, respectively. Rectal and temporalis muscle temperatures were monitored using telethermometers (Yellow Springs Instruments, Yellow Springs, Ohio). Rectal temperature was maintained using a thermostatically controlled water blanket (Gaymar, Orchard Park, N.Y.).\nRats were prepared for parasagittal fluid-percussion traumatic brain injury (TBI) and for laser Doppler flowometry as described below. Intracranial pressure (ICP) was monitored continuously using a Camino probe (V420, Camino Laboratories, San Diego, Calif.) placed in a lateral ventricle through a small craniotomy placed posterior and lateral to the fluid percussion injury site. Isoflurane was lowered to 1.5%; the rats were connected to the trauma device, and subjected to moderate or severe traumatic brain injury.\nAfter traumatic brain injury (or sham-TBI) blood was withdrawn from a catheter in a femoral artery to reduce MAP to 60 mmHg. Mean arterial pressure was maintained at 60 mmHg for 45 minutes during which time cerebral blood flow and ICP were measured. […] Post-resuscitation measurements were then performed. An arterial blood sample was withdrawn with each measurement series to determine PaCO2, PaO2, pH and hemoglobin concentration or hematocrit.\nFluid-percussion traumatic brain injury is a clinically relevant model that has been used in many studies of traumatic brain injury in cats, rats, and pigs (79, 82). The trauma device consists of a Plexiglas cylinder 60 cm long and 4.5 cm in diameter. One end of the device is connected to a hollow metal cylinder housing a pressure transducer (Statham PA856-100) and the other end is closed by a Plexiglas piston mounted on O-rings.\nThe piston is struck by a 4.8-kg steel pendulum dropped from a variable height, which determines the intensity of injury. The pressure pulse is recorded on a storage oscilloscope triggered photoelectrically by the descent of the pendulum. Sham-injured rats were connected to the trauma device but were not injured.\nThe effects of a moderate (2.0 atm) or severe (3.0 atm) levels of injury were studied. Moderate injury (2.1 atm) is associated with 10% mortality, reductions in EEG amplitude for 10 to 15 min, brief (<5 min) suppression of reflexes (corneal, pinna, paw flexion to pinch, righting), and return of spontaneous locomotion within 10 min. […]"}, "zinc-positive neurons": {"tested_on": "zinc-positive neurons", "test": "Pilocarpine-induced seizures, number of zinc-positive neurons", "type": "in vivo"}, "hippocampal slice": {"tested_on": "hippocampal slice", "test": "Zn2+ release from hippocampal slice in oxygen-glucose deprivation (OGD) and reperfusion, Newport Green", "type": "cell-based, rat", "settings": "slices pretreated, 1 mM", "source_text": "In the in vitro model, the ischemia was translated to the hippocampal slice using the established oxygen-glucose deprivation (OGD) paradigm. Zinc in the extracellular fluids of the slice was monitored using membrane impermeable Newport Green as a sensor for Zn^2+ in the extracellular fluid as described herein. The release results paralleled the results obtained in vivo from the rabbits. Zinc was released into the extracellular fluid at the onset of OGD, then even more release was observed during reperfusion (FIG. 8)."}, "hippocampal brain slice": {"tested_on": "hippocampal brain slice", "test": "Zn2+ release into extracellular fluid of acute hippocampal brain slices, EnZin fluorescence", "type": "cell-based, rat", "settings": "immediately after adding to hippocampal slice bath", "method": "Experiments were performed on transverse hippocampal splices taken from 5 to 6 week-old male rats. In all, 41 hippocampal slices and 10 additional hippocampi taken directly from intact animals (“freshly frozen” see below) were studied quantitatively. After halothane (3.5%) inhalation in the anesthetic box, the rats were perfused with 4° C. artificial cerebrospinal fluid (ACSF) (NaCl was substituted by 190 mM sucrose) intracardially for 1 minute (76-77).\nAfter perfusion, the rats were decapitated and the hippocampi were dissected out and placed in cold (4° C.) artificial cerebrospinal fluid. Transverse slice (400 μm) were cut with a vibratome (Campden Vibraslice, model # 752) and placed on a nylon mesh in an incubation chamber. […] The slices were kept at 20° C. in oxygenated (95% O2, 5% CO2) artificial cerebrospinal fluid for 30 minute before stimulation. The gas mixture was also bubbled through the water bath in the chamber and vented over the chamber for >30 minute before the experiment started. The standard artificial cerebrospinal fluid comprised 130 mM NaCl, 3.5 mM KCl, 1.25 mM NaH2PO4, 2 mM MgSO4, 2 mM CaCl2, 20 mM NaHCO3, 2 mM ascorbic acid and 10 mM D-glucose.\nFor measuring zinc release with EnZin, (apoCA+ABDN), the slices were epi-illuminated with 420 nm light and imaged through both 530 nm and 700 nm band pass filters. […] The ABDN is fluorescent at 600 nm when free, but fluoresces at 560 nm when bound to the Zn+CA (“holo” CA). Thus, the CA is the zinc detector, and the ABDN is the ratiometric fluorescent reporter. A variety of CA with different zinc affinities for different zinc measurement ranges can be generated (78).\nThe ratio of the 520/700 nm images were then calculated (Optimus), giving a ratiometric image of zinc concentration. In this fluorescence system, the affinity of the EnZin is so high (Kd=[…]) that it can be treated as infinite. With a stoichiometric excess of EnZin, the percent occupancy of the EnZin by Zn^2+ can be used as the modulator of fluorescence intensity. […]"}, "[3]": {"tested_on": "vesicular zinc in axonal boutons of the hippocampal formation", "settings": "for vesicular zinc staining of boutons (qualitative): TSQ staining, 2 hr after infusion, hippocampal formation", "quoted_text": "Adult Sprague-Dawley rats (male, 300-350 g) were anesthetized with halothane, and mounted in a stereotaxic instrument where a bone defect was opened after reflection of the scalp.\nFor measuring the normal concentration of vesicular zinc in the tissue after treatment with various nitric oxide generators, frozen tissue sections were cut in a closed-top cryostat at 30 μm (−14° C.). For whole brains, starting at 3.6 mm caudal to bregma, every 3rd section was saved until 5-10 sections were obtained. For tissue slices studied in vitro, every section was saved (typically 6-9 per brain slice). After cutting, the sections were thawed onto glass slides, dried, then stained with TSQ (80-82).\nThe sections were stained with TSQ, ((N-(6-methoxy-8-quinolyl)-para-1-toluenesulfonamide, Molecular Probes), as described previously (80) for fluorescence visualization of Zn^2+. Briefly, the frozen, unfixed sections were immersed in a solution of TSQ (4.5 μM) in 140 mM sodium barbital and 140 mM sodium acetate buffer (pH 10-10.5) for 60 seconds, rinsed for 60 seconds in normal saline (NaCl, 0.9%), then viewed and imaged in the microscope with no coverslip while still damp. A SPOT2 cooled CCD camera was used to capture the fluorescence images (10×n.a. 0.65) at 12 bit resolution for subsequent quantitation of zinc-TSQ fluorescence intensity. Control and treated tissues were always digitized in the same sitting to guard against sensitivity changes in the system.\nRats were anesthetized, a microsyringe and needle were lowered into the hippocampal formation or neocerebellar cortex by stereotaxis and then nitric oxide generators were infused into the tissue. After 120 minutes of survival, the rats were sacrificed and the brains were cut and stained to show the location and concentration of the weakly bound Zn^2+ that is normally sequestered in the presynaptic boutons, i.e., vesicular zinc. Zinc localization and quantification were determined by TSQ fluorescence staining."}},
  "note": "“Also recorded” adds a separate entry of the source.",
  "data": [
    {"smiles": "NS(=O)(=O)c1ccc(NCCO)c2nonc12", "note": "[ABDN]", "values": [
      {"measurement": "Kd", "setting": "[1]", "result": 45, "unit": "µM"}
    ]},
    {"smiles": "COC(=O)[C@@H](N)CCCNC(=N)N[N+](=O)[O-]", "note": "[L-NAME, N(6)-nitro-L-arginine methyl ester]", "values": [
      {"measurement": "number of zinc-stained cells (qualitative)", "setting": "[2]; TBI plus hypoperfusion, prior administration", "result": "substantial reduction; also recorded: greatly reduces"},
      {"measurement": "number of zinc-positive neurons after excitotoxic insult (qualitative)", "setting": "[2]; blunt-trauma", "result": "dramatically reduces"},
      {"measurement": "sparing in the number of zinc-injured (zinc-positive) neurons", "setting": "[2]; hilus", "result": 50, "unit": "%"},
      {"measurement": "sparing in the number of zinc-injured (zinc-positive) neurons", "setting": "[2]; hippocampal cortex (CA3)", "result": 50, "unit": "%"},
      {"measurement": "number of zinc-positive neurons after excitotoxic insult (qualitative)", "setting": "zinc-positive neurons", "result": "dramatically reduces"},
      {"measurement": "Zn^2+ release into extracellular fluid after OGD and reperfusion", "setting": "hippocampal slice", "result": "almost completely blocked"}
    ]},
    {"smiles": "CC(=O)N[C@H](C(=O)O)C(C)(C)SN=O", "note": "[SNAP, S-nitroso-N-acetyl-L-penicillamine]", "values": [
      {"measurement": "Zn^2+ fluorescence in the slice bath / extracellular fluid", "setting": "hippocampal brain slice", "result": "rapid (within seconds) increase; also recorded: raised"}
    ]},
    {"smiles": "NCCCNCCCCN(CCCN)/[N+]([O-])=N/O", "note": "[Spermine NO, Spermine-NONOate]", "values": [
      {"measurement": "Zn^2+ fluorescence in the slice bath / extracellular fluid", "setting": "hippocampal brain slice", "result": "rapid (within seconds) increase"},
      {"measurement": "vesicular zinc staining of boutons (qualitative)", "setting": "[3]", "result": "depletes zinc"},
      {"measurement": "vesicular zinc in the hilus reduced compared to control", "setting": "[3]; quantitative microfluorimetric analysis, hilus, in vivo infusion", "result": "about 60%"}
    ]},
    {"smiles": "NCCCNCCCCNCCCN", "note": "[Spermine]", "values": [
      {"measurement": "Zn^2+ fluorescence in the slice bath / extracellular fluid", "setting": "hippocampal brain slice", "result": "no effect"},
      {"measurement": "vesicular zinc staining of boutons (qualitative)", "setting": "[3]", "result": "unaffected"}
    ]}
  ]
}
